Here are results for 14 compounds from US20250275991A1, “ORAL COMPLEMENT FACTOR D INHIBITORS” (BioCryst Pharmaceuticals, Inc, priority 2019, published 2025).

Structures are written as SMILES.

By IC50 is commonly meant the concentration that gives 50% inhibition.

Chain of Factor D (P00746 26-253): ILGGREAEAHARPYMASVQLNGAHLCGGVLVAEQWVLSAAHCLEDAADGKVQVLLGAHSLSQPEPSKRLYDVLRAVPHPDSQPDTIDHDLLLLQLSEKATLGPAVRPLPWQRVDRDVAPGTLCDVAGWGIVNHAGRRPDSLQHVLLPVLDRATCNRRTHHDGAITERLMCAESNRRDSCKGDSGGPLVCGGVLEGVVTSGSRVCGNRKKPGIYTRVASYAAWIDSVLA

The target in this assay is Factor D (Homo sapiens, UniProt P00746). Nature of the assay: Factor D esterolytic assay. As to conditions: substrate Z-Lys-SBzl 1.29 mM, 100 mM HEPES, 500 mM NaCl, pH 7.5, 10% DMSO, tested a minimum of three times. Type of assay: biochemical. As to the method:
The IC50 value of a compound (i.e., the concentration of the compound that inhibits 50% of the enzymatic activity) was calculated according to the procedure reported in U.S. Pat. No. 6,653,340 B1, e.g., column 74 (incorporated by reference).
Specifically, the compounds were dissolved in a stock solution of DMSO at 10.0 or 100 mM. A portion of this stock solution was added to assay buffer in a final volume of 50 μL. Controls included buffer alone and enzyme solutions to which DMSO was added. Substrate was added to the reaction wells immediately or after incubation at room temperature. The reaction rates were measured spectrophotometrically by the generation of product at 405 nm for 600 sec. Background absorbance at 690 nm was measured and subtracted from the absorbance at 405 nm for each well.
The reaction rate for enzyme alone was compared to the rate of enzyme in the presence of inhibitor and the percent inhibition was calculated as shown below: […]
An established esterolytic assay for the measurement of Factor D activity and inhibition of Factor D activity was used (Kam, C. M.; McRae, B. J.; Harper, J. W.; Niemann, M. A.; Volanakis, J. E.; Powers, J. C. Human complement proteins D, C2, and B Active site mapping with peptide thioester substrates. J Biol. Chem. 1987, 262, 3444-3451). For this assay Z-Lys-SBzl, 1.29 mM (Kim, S.; Narayana, S. V. L; Volanakis, J. E. Mutational analysis of the substrate binding site of human complement Factor D. Biochemistry. 1994, 33, 14393-14399.) was used as the substrate for Factor D ([…]). Hydrolysis of this compound by Factor D liberated a free sulfhydryl group which is then reacted with 5,5′-dithiobis(2nitrobenzoic acid) producing an intense yellow color (Habeeb, A. F. S. A. Reaction of protein sulfhydryl groups with Ellman's Reagent. Methods in Enzymol. 1976, 25, 457-464). The assays were performed in 96 well microtiter plates and rates of hydrolysis were monitored at 405 nm on a Biotek Synergy H1 plate reader. Hydrolysis rates were reported as change in mOD/min. The assay was conducted in 100 mM HEPES, 500 mM NaCl, pH 7.5 containing 10% DMSO in a final volume of 50 μL per well.
An IC50, a compound concentration which inhibits 50% of the enzymatic activity, was calculated. Compounds in the examples were tested a minimum of three times.
In the case of `NCc1cc(-c2cc(COc3ccccc3CC(=O)O)cc3ccoc23)c[nH]1` [Compound 8g, 2-(2-((7-(5-(aminomethyl)-1H-pyrrol-3-yl)benzofuran-5-yl)methoxy)phenyl)acetic acid], the IC50 fell in the range of 1000 to 10000 nM. In the case of `NCc1cccc(-c2cc(COc3ccccc3CC(=O)O)cc3c(F)coc23)c1F` [Compound 45b, 2-(2-((7-(3-(aminomethyl)-2-fluorophenyl)-3-fluorobenzofuran-5-yl)methoxy)phenyl)acetic acid], the IC50 is below 1000 nM. The value for `CCC(C(=O)O)c1ccccc1OCc1cc(-c2ccnc(CN)c2F)c2occc2c1` (centres unmarked) [Compound 38c, 2-(2-((7-(2-(aminomethyl)-3-fluoropyridin-4-yl)benzofuran-5-yl)methoxy)phenyl)butanoic acid] was below 1000 nM. The value for `NCc1cccc(-c2cc(C(CC(=O)O)Oc3ccccc3CC(=O)O)cc3ccoc23)c1` (centres unmarked) [Compound 62g, 3-(7-(3-(aminomethyl)phenyl)benzofuran-5-yl)-3-(2-(carboxymethyl)phenoxy)propanoic acid] was below 1000 nM. The value for `Cn1cc(-c2c(COc3ccccc3CC(=O)O)cc(-c3cccc(CN)c3)c3occc23)cn1` [Compound 78e, 2-(2-((7-(3-(aminomethyl)phenyl)-4-(1-methyl-1H-pyrazol-4-yl)benzofuran-5-yl)methoxy)phenyl)acetic acid] was below 1000 nM. On to `NCc1cccc(-c2cc(C(=O)Nc3ccccc3CC(=O)O)cc3c2ccn3-c2ccccc2)c1` [Compound 71e, 2-(2-(4-(3-(aminomethyl)phenyl)-1-phenyl-1H-indole-6-carboxamido)phenyl)acetic acid], for which the 50% inhibitory concentration (IC50) is below 1000 nM. The value for `NC(CC(F)(F)F)c1cccc(-c2cc(COc3ccccc3CC(=O)O)cc3ccoc23)c1` (centres unmarked) [Compound 41e, 2-(2-((7-(3-(1-amino-3,3,3-trifluoropropyl)phenyl)benzofuran-5-yl)methoxy)phenyl)acetic acid] was 1000 to 10000 nM; that for `NCc1cccc(-c2cc(COc3ccccc3CC(=O)O)c(OCC3CCCO3)c3ccoc23)c1` (centres unmarked) [Compound 69g, 2-(2-((7-(3-(aminomethyl)phenyl)-4-((tetrahydrofuran-2-yl)methoxy)benzofuran-5-yl)methoxy)phenyl)acetic acid] was below 1000 nM. On to `CC(N)c1cc(-c2cc(COc3ccccc3CC(=O)O)cc3ccoc23)cs1` (centres unmarked) [Compound 4c, 2-(2-((7-(5-(1-aminoethyl)thiophen-3-yl)benzofuran-5-yl)methoxy)phenyl)acetic acid], for which the IC50 was above 10000 nM. `NCc1cc(-c2cc(COc3cc(C(F)(F)F)ccc3CC(=O)O)cc3ccoc23)ccn1` [Compound 57b, 2-(2-((7-(2-(aminomethyl)pyridin-4-yl)benzofuran-5-yl)methoxy)-4-(trifluoromethyl)phenyl)acetic acid]: the IC50 is below 1000 nM. As for `COCOc1c(COc2ccccc2CC(=O)O)cc(-c2cccc(CN)c2)c2occc12` [Compound 81h, 2-(2-((7-(3-(aminomethyl)phenyl)-4-(methoxymethoxy)benzofuran-5-yl)methoxy)phenyl)acetic acid], the IC50 was below 1000 nM.

Turning to `O=CNCc1nccc(-c2cc(COc3ccccc3CC(=O)O)cc3ccoc23)c1F` [Compound 36f, 2-(2-((7-(3-fluoro-2-(formamidomethyl)pyridin-4-yl)benzofuran-5-yl)methoxy)phenyl)acetic acid], the IC50 is below 1000 nM.

Take `NCc1cccc(-c2cc(COc3ccc(F)cc3CC(=O)O)cc3cc(F)oc23)c1F` [Compound 18c, 2-(2-((7-(3-(aminomethyl)-2-fluorophenyl)-2-fluorobenzofuran-5-yl)methoxy)-5-fluorophenyl)acetic acid]: the half-inhibitory concentration (IC50) is below 1000 nM.

For `NCc1nc(-c2cc(COc3ccccc3CC(=O)O)cc3ccoc23)cs1` [Compound 5e, 2-(2-((7-(2-(aminomethyl)thiazol-4-yl)benzofuran-5-yl)methoxy)phenyl)acetic acid], the 50% inhibitory concentration (IC50) was below 1000 nM.
